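Compound exposure: 48 hours, 5 concentrations, 96-well plates. GI50 is the concentration that inhibits growth by half.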 Calls of active or inactive are those of the source. Rule as the data show it: active = GI50 up to about 1.1 µM and inactive = higher.
Assays:
Test in all cases: growth of human tumour cells (NCI), 48 h
UO-31 = tested on: UO-31
SNB-19 = tested on: SNB-19
NCI-H460 = tested on: NCI-H460
CCRF-CEM = tested on: CCRF-CEM
EKVX = tested on: EKVX
CAKI-1 = tested on: CAKI-1
U-251 = tested on: U-251
OVCAR-8 = tested on: OVCAR-8
SK-OV-3 = tested on: SK-OV-3
ACHN = tested on: ACHN
Malme-3M = tested on: Malme-3M
HOP-18 = tested on: HOP-18
NCI-H23 = tested on: NCI-H23
HOP-62 = tested on: HOP-62
786-0 = tested on: 786-0
HCC 2998 = tested on: HCC 2998
SNB-75 = tested on: SNB-75
IGROV-1 = tested on: IGROV-1
SW-620 = tested on: SW-620
SK-MEL-5 = tested on: SK-MEL-5
SF-268 = tested on: SF-268
HCT-15 = tested on: HCT-15
SR = tested on: SR
HL-60 = tested on: HL-60
K562 = tested on: K562
MOLT-4 = tested on: MOLT-4
M14 = tested on: M14
KM12 = tested on: KM12
RPMI-8226 = tested on: RPMI-8226
UACC-257 = tested on: UACC-257
HT-29 = tested on: HT-29
LXFL 529 = tested on: LXFL 529
M19-MEL = tested on: M19-MEL
SF-539 = tested on: SF-539
A498 = tested on: A498
KM-20L2 = tested on: KM-20L2
COLO 205 = tested on: COLO 205
DLD-1 = tested on: DLD-1
DMS-273 = tested on: DMS-273
SF-295 = tested on: SF-295
OVCAR-3 = tested on: OVCAR-3
SK-MEL-2 = tested on: SK-MEL-2
UACC-62 = tested on: UACC-62
A549 = tested on: A549
SNB-78 = tested on: SNB-78
TK-10 = tested on: TK-10
LOX IMVI = tested on: LOX IMVI
HOP-92 = tested on: HOP-92
NCI-H522 = tested on: NCI-H522
SK-MEL-28 = tested on: SK-MEL-28
OVCAR-5 = tested on: OVCAR-5
SN12C = tested on: SN12C
DMS-114 = tested on: DMS-114
OVCAR-4 = tested on: OVCAR-4
RXF 393 = tested on: RXF 393
MCF7 = tested on: MCF7
XF498 = tested on: XF498
HCT-116 = tested on: HCT-116
NCI/ADR-RES = tested on: NCI/ADR-RES
NCI-H226 = tested on: NCI-H226

`CCOC(=O)CC[C@@H](NC(=O)c1ccc(N[C@@H]2c3cc4c(cc3C(c3cc(OC)c(O)c(OC)c3)C3C(=O)OC[C@@H]32)OCO4)cc1)C(=O)OCC` (stereo not given in full) was tested, and the GI50 (UO-31) was 0.0627 µM (active), the GI50 (SNB-19) was 0.0197 µM (active) and the GI50 (NCI-H460) was 0.001 µM (active). The GI50 (CCRF-CEM) was 0.00525 µM (active), the GI50 (EKVX) was 0.0251 µM (active) and the GI50 (CAKI-1) was 0.013 µM (active). For the same compound, the GI50 (U-251) was 0.0175 µM (active), the GI50 (OVCAR-8) was 0.0251 µM (active) and the GI50 (SK-OV-3) was 0.0144 µM (active). For the same compound, the GI50 (ACHN) was 0.0115 µM (active), the GI50 (Malme-3M) was 0.0995 µM (active) and the GI50 (HOP-18) was 0.249 µM (active). The GI50 (NCI-H23) was 0.0103 µM (active), the GI50 (HOP-62) was 0.0127 µM (active) and the GI50 (786-0) was 3.85 µM (inactive). The GI50 (HCC 2998) was 0.136 µM (active), the GI50 (SNB-75) was 0.0787 µM (active) and the GI50 (IGROV-1) was 0.0706 µM (active). The GI50 (SW-620) was 0.0396 µM (active), the GI50 (SK-MEL-5) was 0.0247 µM (active) and the GI50 (SF-268) was 0.0208 µM (active). For the same compound, the GI50 (HCT-15) was 0.0637 µM, the GI50 (SR) was > 10 µM (inactive) and the GI50 (HL-60) was 0.00292 µM (active). The GI50 (K562) was 0.0469 µM (active), the GI50 (MOLT-4) was 0.00194 µM (active) and the GI50 (M14) was 5.24 µM (inactive). For the same compound, the GI50 (KM12) was 0.0322 µM (active), the GI50 (RPMI-8226) was 0.0411 µM (active) and the GI50 (UACC-257) was 0.13 µM (active). For the same compound, the GI50 (HT-29) was 0.0427 µM (active), the GI50 (LXFL 529) was 7.23 µM (inactive) and the GI50 (M19-MEL) was 0.0608 µM (active). The GI50 (SF-539) was 0.0157 µM (active), the GI50 (A498) was 0.0129 µM (active) and the GI50 (KM-20L2) was 0.0404 µM (active). The GI50 (COLO 205) was 0.119 µM (active), the GI50 (DLD-1) was 0.123 µM (active) and the GI50 (DMS-273) was 0.00566 µM (active). For the same compound, the GI50 (SF-295) was 0.0121 µM (active), the GI50 (OVCAR-3) was 0.143 µM (active) and the GI50 (SK-MEL-2) was 0.0863 µM (active). The GI50 (UACC-62) was 0.0167 µM (active), the GI50 (A549) was 0.0222 µM (active) and the GI50 (SNB-78) was 0.859 µM (active). For the same compound, the GI50 (TK-10) was 0.11 µM (active), the GI50 (LOX IMVI) was 0.0205 µM (active) and the GI50 (HOP-92) was 0.0205 µM (active). The GI50 (NCI-H522) was 0.0975 µM (active), the GI50 (SK-MEL-28) was 0.2 µM (active) and the GI50 (OVCAR-5) was 0.0652 µM (active). The GI50 (SN12C) was 0.0256 µM (active).
For `C[S+](C)CC1OC(n2cnc3c(N)ncnc32)C(O)C1O` (stereo not given), the GI50 (UO-31) was > 225 µM (inactive), the GI50 (SNB-19) was > 225 µM (inactive) and the GI50 (NCI-H460) was > 225 µM (inactive). For the same compound, the GI50 (CCRF-CEM) was > 225 µM (inactive), the GI50 (EKVX) was > 225 µM (inactive) and the GI50 (CAKI-1) was > 225 µM (inactive). The GI50 (U-251) was > 225 µM (inactive), the GI50 (OVCAR-8) was > 225 µM (inactive) and the GI50 (SK-OV-3) was > 225 µM (inactive). For the same compound, the GI50 (Malme-3M) was > 225 µM (inactive), the GI50 (NCI-H23) was > 225 µM (inactive) and the GI50 (HOP-62) was > 225 µM (inactive). For the same compound, the GI50 (HCC 2998) was > 225 µM (inactive), the GI50 (SNB-75) was > 225 µM (inactive) and the GI50 (DMS-114) was > 225 µM (inactive). For the same compound, the GI50 (IGROV-1) was > 225 µM (inactive), the GI50 (OVCAR-4) was > 225 µM (inactive) and the GI50 (RXF 393) was > 225 µM (inactive). For the same compound, the GI50 (SW-620) was > 225 µM (inactive), the GI50 (SK-MEL-5) was > 225 µM (inactive) and the GI50 (SF-268) was > 225 µM (inactive). The GI50 (MCF7) was > 225 µM (inactive), the GI50 (HCT-15) was greater than 225 µM and the GI50 (HL-60) was > 225 µM (inactive). The GI50 (K562) was > 225 µM (inactive), the GI50 (XF498) was > 225 µM (inactive) and the GI50 (HCT-116) was > 225 µM (inactive). For the same compound, the GI50 (MOLT-4) was > 225 µM (inactive), the GI50 (KM12) was > 225 µM (inactive) and the GI50 (RPMI-8226) was > 225 µM (inactive). For the same compound, the GI50 (UACC-257) was > 225 µM (inactive), the GI50 (HT-29) was > 225 µM (inactive) and the GI50 (M19-MEL) was > 179 µM (inactive). For the same compound, the GI50 (SF-539) was > 225 µM (inactive), the GI50 (A498) was > 225 µM (inactive) and the GI50 (KM-20L2) was > 225 µM (inactive). For the same compound, the GI50 (COLO 205) was > 225 µM (inactive), the GI50 (DLD-1) was > 225 µM (inactive) and the GI50 (DMS-273) was > 225 µM (inactive). For the same compound, the GI50 (NCI/ADR-RES) was > 225 µM (inactive), the GI50 (SF-295) was > 225 µM (inactive) and the GI50 (OVCAR-3) was > 225 µM (inactive). The GI50 (NCI-H226) was > 225 µM (inactive), the GI50 (SK-MEL-2) was > 225 µM (inactive) and the GI50 (UACC-62) was > 96.2 µM (inactive). For the same compound, the GI50 (A549) was > 225 µM (inactive), the GI50 (SNB-78) was > 225 µM (inactive) and the GI50 (LOX IMVI) was > 225 µM (inactive). The GI50 (HOP-92) was > 225 µM (inactive), the GI50 (NCI-H522) was > 225 µM (inactive) and the GI50 (SK-MEL-28) was > 225 µM (inactive). For the same compound, the GI50 (OVCAR-5) was > 225 µM (inactive) and the GI50 (SN12C) was > 178 µM (inactive).
